Values quoted from earlier work as cited in patent US8741342B2, “Pharmaceutical compositions comprising entacapone, levodopa, and carbidopa” (Wockhardt Research Centre, priority 2006, dated 2014).

Details: qualitative description in background section

Row | solubility in water | Compound
1 | slightly soluble in water | N[C@@H](Cc1ccc(O)c(O)c1)C(=O)O [Levodopa, (−)-L-α-amino-β-(3,4-dihydroxybenzene)propanoic acid]
2 | slightly soluble in water | C[C@@](Cc1ccc(O)c(O)c1)(NN)C(=O)O [Carbidopa, (−)-L-(α-hydrazino-(α-methyl-β-(3,4-dihydroxybenzene)propanoic acid monohydrate]
